Source: patent US9493460B2, “Diimide compounds” (UCL BUSINESS PLC, priority 2013, dated 2016)

Assays:
[1] = tested on: human telomeric G-quadruplex DNA (F21T); experiment: FRET melting assay, human telomeric quadruplex; type: binding; conditions: for selectivity for quadruplex over duplex DNA (in words): compared to the n=3 compounds; for change in melting temperature F21T 1 uM: 1 uM ligand; for change in melting temperature F21T 2 uM: 2 uM ligand
Excerpt: (§1) The ability of the naphthalene diimide compounds to stabilize DNA sequences was investigated using a fluorescence resonance energy transfer (FRET) assay modified to be used as a high-throughput screen in a 96-well format. Several quadruplex sequences were studied (the human telomeric G-quadruplex DNA sequence 5′-FAM-d(GGG[TTAGGG]3)-TAMRA-3′ and the duplex sequence 5′-FAM-dTATAGCTATA-HEG-TATAGCTATA-TAMRA-3′ (HEG linker: [(—CH2—CH2—O—)6])), as well as two overlapping sequences from the HSP90 promoter region (HSP90a and HSP90b):
(§2) The labelled oligonucleotides have attached to them the donor fluorophore FAM: 6-carboxyfluorescein and the acceptor fluorophore TAMRA: 6-carboxytetramethylrhodamine. The FRET probe sequences were diluted from stock to the correct concentration (400 nM) in a 60 mM potassium cacodylate buffer (pH 7.4) and then annealed by heating to 85° C. for 10 min, followed by cooling to room temperature in the heating block. The compound was stored as a 10 mM stock solution in DMSO; final solutions (at 2×concentration) were prepared using 10 mM HCl in the initial 1:10 dilution, after which 60 mM potassium cacodylate buffer (pH 7.4) was used in all subsequent steps. The maximum HCl concentration in the reaction volume (at a ligand concentration of 20 μM) is thus 200 μM, well within the range of the buffer used. Relevant controls were also performed to check for interference with the assay. 96-Well plates (MJ Research, Waltham, Mass.) were prepared by aliquoting 50 μl of the annealed DNA into each well, followed by 50 μl of the compound solutions. Measurements were made on a DNA Engine Opticon (MJ Research) with excitation at 450-495 nm and detection at 515-545 nm. Fluorescence readings were taken at intervals of 0.5° C. in the range 30-100° C., with a constant temperature being maintained for 30 s prior to each reading to ensure a stable value. Final analysis of the data was carried out using a script written in the program Origin 7.0 (OriginLab Corp., Northampton, Mass.). The advanced curve-fitting function in Origin 7.0 was used for calculation of ΔTm values. All determinations were performed in triplicate or better. Esds in ΔTm are ±0.1° C.
The ability of compounds 3a-h to stabilize a human telomeric quadruplex was assessed by a high-throughput FRET (Fluorescence Resonance Energy Transfer) melting technique. […] None of the furan tetrahydrofuran, pyranose or acyclic ether compounds has any effect on quadruplex or duplex stability.
(§3) The T-loop sequence represents duplex DNA.

[2] = tested on: RCC4 (renal) cells; experiment: SRB growth inhibition assay, 96 hr exposure, RCC4; type: cell-based, human; conditions: Homo sapiens, RCC4
Description: (§4) Human cancer cell lines, MCF7 (breast), A549 (lung), Mia-PaCa2, PANC1 and HPAC (pancreatic), RCC4 and 786-0 renal, and the somatic human cell line WI-38 (lung fibroblast) were purchased from ATCC. Cell lines were maintained in appropriate medium supplemented with 10% foetal bovine serum (Invitrogen, UK), 2 mM L-glutamine (Invitrogen, Netherlands), and other components as specified by the suppliers. Cell lines were maintained at 37° C., 5% CO2 and routinely passaged. Drugs were dissolved in DMSO and filtered through 0.22 μm pore-size filter units before addition to cell line appropriate media. Cellular growth inhibition was measured using the sulforhodamine B (SRB) assay in 96 well plates as described previously.^1,2 Fifty percent inhibitory concentrations (IC50) were determined by taking the mean absorbance at 540 nm for each drug concentration expressed as a percentage of the absorbance of untreated control wells.
(§5) The anti-proliferative activity of the group of nine ND derivatives was assessed using the SRB assay following 96 h exposure to 2-fold serial dilutions of each compound (Table 2) in a panel of cancer cell lines together with a normal fibroblast line. […] In contrast the morpholine compounds all show sub-μM anti-proliferative activity in at least some of the cancer cell lines used and the two compounds 3d, 3h with n=3 —(CH2)n— linkers to the morpholine groups, show particularly potent activity in the Mia-PaCa2 and PANC1 pancreatic carcinoma and A549 lung adenocarcinoma cell lines (IC50 values of 10-20 nM).
(§6) Next a series of structural isomers were tested.

[3] = tested on: 786-O (renal) cells; experiment: SRB growth inhibition assay, 96 hr exposure, 786-O; type: cell-based, human; conditions: Homo sapiens, 786-0; SRB assay, 96 hr exposure
Description: as §4, §5, §6

[4] = tested on: MCF-7 (breast) cells; experiment: SRB growth inhibition assay, 96 hr exposure, MCF-7; type: cell-based, human; conditions: Homo sapiens, MCF7
Description: as §4, §5, §6

[5] = tested on: MiaPaCa2 (pancreatic) cells; experiment: SRB growth inhibition assay, MiaPaCa2; type: cell-based, human; conditions: Homo sapiens, MIA PaCa-2; SRB assay, 96 hr exposure
Description: as §4, §5
Dose-response curves were used to guide the choice of compound concentration and time-points for the array experiments (FIG. 2a). […] To explore this response continuum the transcriptional signature of cells exposed for 24 h to 20 nM, 40 nM, 80 nM concentrations of 3d, or solvent alone as control, was analysed as described in Materials and Methods.
as §6

[6] = tested on: A549 (lung) cells; experiment: SRB growth inhibition assay, 96 hr exposure, A549; type: cell-based, human; conditions: Homo sapiens, A549, 96 hr exposure
Description: as §4, §5, §6

[7] = tested on: WI38 normal human fibroblast cells; experiment: SRB growth inhibition assay, 96 hr exposure, WI38; type: cell-based; conditions: Homo sapiens, WI-38
Description: as §4
as §5, with “nM). […]” for “nM).”

[8] = tested on: HSP90a promoter quadruplex sequence; experiment: FRET melting assay, Hsp90A quadruplex; type: binding; conditions: for change in melting temperature Hsp90A 1 uM: 1 uM ligand; for change in melting temperature Hsp90A 2 uM: 2 uM ligand
Excerpt: as §1
as §2, with “±0.1° C. […]” for “±0.1° C.”

[9] = tested on: HSP90b promoter quadruplex sequence; experiment: FRET melting assay, Hsp90B quadruplex; type: binding; conditions: for change in melting temperature Hsp90B 1 uM: 1 uM ligand; for change in melting temperature Hsp90B 2 uM: 2 uM ligand
Excerpt: as §1
as §2, with “±0.1° C. […]” for “±0.1° C.”

[10] = tested on: duplex DNA (T-loop); experiment: FRET melting assay, duplex DNA; type: binding; conditions: for change in melting temperature Tloop 1 uM: 1 uM ligand; for change in melting temperature Tloop 2 uM: 2 uM ligand
Excerpt: as §1, §2, §3

SMILES	selectivity for quadruplex over duplex DNA (in words) [1]	IC50 [2] [nM]	IC50 [3] [nM]	IC50 [4] [nM]	IC50 [5] [nM]	IC50 [6] [nM]	IC50 [7] [nM]	change in melting temperature F21T 1 uM [1]	change in melting temperature F21T 2 uM [1]	change in melting temperature Hsp90A 1 uM [8]	change in melting temperature Hsp90A 2 uM [8]	change in melting temperature Hsp90B 1 uM [9]	change in melting temperature Hsp90B 2 uM [9]	change in melting temperature Tloop 1 uM [10]	change in melting temperature Tloop 2 uM [10]
CN1CCN(CCCNc2cc3c4c(c(NCCCN5CCN(C)CC5)cc5c4c2C(=O)N(CCN2CCOCC2)C5=O)C(=O)N(CCN2CCOCC2)C3=O)CC1 [Compound 3f, 4,9-bis((3-(4-methylpiperazin-1-yl)propyl)amino)-2,7-bis(2-morpholinoethyl)benzo[lmn][3,8]phenanthroline-1,3,6,8(2H,7H)-tetraone]	superior selectivity for quadruplex over duplex DNA														
CN1CCN(CCNc2cc3c4c(c(NCCN5CCN(C)CC5)cc5c4c2C(=O)N(CCN2CCOCC2)C5=O)C(=O)N(CCN2CCOCC2)C3=O)CC1 [Compound 3g, 4,9-bis((2-(4-methylpiperazin-1-yl)ethyl)amino)-2,7-bis(2-morpholinoethyl)benzo[lmn][3,8]phenanthroline-1,3,6,8(2H,7H)-tetraone]	superior selectivity for quadruplex over duplex DNA														
CN1CCN(CCCNc2cc3c4c(c(NCCCN5CCN(C)CC5)cc5c4c2C(=O)N(CC2CCCO2)C5=O)C(=O)N(CC2CCCO2)C3=O)CC1 (centres unmarked) [MM10]		> 10000	> 10000	> 10000	5650 ± 930	5570 ± 870	> 10000	23	26	27	30	21	28	0	0
CN1CCN(CCCNc2cc3c4c(c(NCCCN5CCN(C)CC5)cc5c4c2C(=O)N(CC2CCOCC2)C5=O)C(=O)N(CC2CCOCC2)C3=O)CC1 [MM33]		8380 ± 500	1200 ± 30	3120 ± 130	2500 ± 10	2920 ± 10	12650 ± 110	<2	<2	<2	<2	<2	<2	0	0
COCCCN1C(=O)c2cc(NCCCN3CCN(C)CC3)c3c4c(cc(NCCCN5CCN(C)CC5)c(c24)C1=O)C(=O)N(CCCOC)C3=O [MM43]		10500 ± 140	7170 ± 410	5620 ± 150	2790 ± 90	2540 ± 10	3320 ± 500	<2	22	29	32	24	29	0	0
CN1CCN(CCCNc2cc3c4c(c(NCCCN5CCN(C)CC5)cc5c4c2C(=O)N(CCN2CCOCC2)C5=O)C(=O)N(CCN2CCOCC2)C3=O)CC1 [MM45]		1750 ± 180	630 ± 60	170 ± 10	40 ± 10	1550 ± 20	610 ± 20	27	31	34	36	29	34	0	1
CN1CCN(CCNc2cc3c4c(c(NCCN5CCN(C)CC5)cc5c4c2C(=O)N(CCCN2CCOCC2)C5=O)C(=O)N(CCCN2CCOCC2)C3=O)CC1 [MM47]		280 ± 60		30 ± 10	10 ± 10	23 ± 6	2460 ± 20	28	33	32	36	31	34	8	12
